Experiment [1] deals with TANK binding kinase (TBK1) (Homo sapiens (Human), UniProt Q9UHD2). In words: TBK1 enzyme assay (384-well Flashplate kinase assay). In kind it is biochemical. The settings on record: 10 μM ATP, 120 Min at 30° C. As for the experimental part:
The kinase assay is performed as 384-well Flashplate assay (for e.g. Topcount measurement. 0.6 nM TANK binding kinase (TBK1), 800 nM biotinylated MELK-derived peptide (Biotin-Ah-Ah-[…]) SEQ ID NO: 2 and 10 μM ATP (spiked with 0.25 μCi ^33P-ATP/well) are incubated in a total volume of 50 μl (10 mM MOPS, 10 mM Mg-acetat, 0.1 mM EGTA, 1 mM DTT, 0.02% Brij35, 0.1% BSA, pH 7.5) with or without test compound for 120 Min at 30° C. The reaction is stopped with 25 μl 200 mM EDTA. After 30 Min at room temperature the liquid is removed and each well washed thrice with 100 μl 0.9% sodium chloride solution. Nonspecific reaction is determined in presence of 100 nM Staurosporine. Radioactivity is measured in a Topcount (PerkinElmer). Results (e.g. IC50-values) are calculated with program tools provided by the IT-department (e.g. AssayExplorer, Symyx).

A further experiment deals with IKKε (Homo sapiens (Human), UniProt Q14164). The experiment in a line: IKKε kinase assay (384-well Flashplate). In kind it is biochemical. As to conditions: 10 μM ATP, 2 hours at 30° C.; read-out: IKKε enzyme assay IC50. The protocol: IKKε—Kinase Assay (IKKepsilon)
The kinase assay is performed either as 384-well Flashplate assay (for e.g. Topcount measurement). 1 nM IKKε, 800 nM biotinylated IκBα(19-42) peptide (Biotin-C6-C6-[…]) SEQ ID NO: 1 and 10 μM ATP (spiked with 0.3 μCi ^33P-ATP/well) are incubated in a total volume of 50 μl (10 mM MOPS, 10 mM Mg-acetat, 0.1 mM EGTA, 1 mM Dithiothreitol,0.02% Brij35, 0.1% BSA, 0.1% BioStab, pH 7.5) with or without test compound for 2 hours at 30° C. The reaction is stopped with 25 μl 200 mM EDTA. After 30 Min at room temperature the liquid is removed and each well washed thrice with 100 μl 0.9% sodium chloride solution. Non-specific reaction is determined in presence of 3 μM MSC2119074 (BX-795). Radioactivity is measured with Topcount (PerkinElmer). Results (e.g. IC50-values) are calculated with program tools provided by the IT-department (e.g. AssayExplorer, Symyx).

IC50 data for 26 compounds are collected here from patent US9273029B2, “Pyridine-and pyrazine derivatives” (Merck Patent GmbH, priority 2011, dated 2016).

By IC50 is commonly meant the concentration needed to halve the response being measured.

TANK binding kinase (TBK1), sequence (Q9UHD2 whole entry): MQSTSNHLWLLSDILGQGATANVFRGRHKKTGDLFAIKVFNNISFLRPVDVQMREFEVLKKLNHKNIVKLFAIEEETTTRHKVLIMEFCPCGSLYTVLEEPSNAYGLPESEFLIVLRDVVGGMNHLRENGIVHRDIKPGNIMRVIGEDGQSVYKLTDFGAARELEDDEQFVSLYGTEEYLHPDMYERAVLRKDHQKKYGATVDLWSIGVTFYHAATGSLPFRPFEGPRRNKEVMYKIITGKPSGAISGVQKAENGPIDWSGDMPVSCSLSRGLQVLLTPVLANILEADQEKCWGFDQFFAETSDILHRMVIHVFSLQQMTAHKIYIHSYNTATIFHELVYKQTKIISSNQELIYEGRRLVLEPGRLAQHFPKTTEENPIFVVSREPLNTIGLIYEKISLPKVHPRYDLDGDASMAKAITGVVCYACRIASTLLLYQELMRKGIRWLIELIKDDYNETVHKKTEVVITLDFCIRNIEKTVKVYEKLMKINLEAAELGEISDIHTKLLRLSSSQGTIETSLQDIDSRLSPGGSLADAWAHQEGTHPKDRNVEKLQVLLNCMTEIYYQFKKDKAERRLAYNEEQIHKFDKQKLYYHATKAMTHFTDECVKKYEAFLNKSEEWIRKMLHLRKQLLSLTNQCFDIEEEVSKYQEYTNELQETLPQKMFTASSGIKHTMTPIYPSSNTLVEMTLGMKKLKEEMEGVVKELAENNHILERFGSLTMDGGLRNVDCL
IKKε, sequence (Q14164 whole entry): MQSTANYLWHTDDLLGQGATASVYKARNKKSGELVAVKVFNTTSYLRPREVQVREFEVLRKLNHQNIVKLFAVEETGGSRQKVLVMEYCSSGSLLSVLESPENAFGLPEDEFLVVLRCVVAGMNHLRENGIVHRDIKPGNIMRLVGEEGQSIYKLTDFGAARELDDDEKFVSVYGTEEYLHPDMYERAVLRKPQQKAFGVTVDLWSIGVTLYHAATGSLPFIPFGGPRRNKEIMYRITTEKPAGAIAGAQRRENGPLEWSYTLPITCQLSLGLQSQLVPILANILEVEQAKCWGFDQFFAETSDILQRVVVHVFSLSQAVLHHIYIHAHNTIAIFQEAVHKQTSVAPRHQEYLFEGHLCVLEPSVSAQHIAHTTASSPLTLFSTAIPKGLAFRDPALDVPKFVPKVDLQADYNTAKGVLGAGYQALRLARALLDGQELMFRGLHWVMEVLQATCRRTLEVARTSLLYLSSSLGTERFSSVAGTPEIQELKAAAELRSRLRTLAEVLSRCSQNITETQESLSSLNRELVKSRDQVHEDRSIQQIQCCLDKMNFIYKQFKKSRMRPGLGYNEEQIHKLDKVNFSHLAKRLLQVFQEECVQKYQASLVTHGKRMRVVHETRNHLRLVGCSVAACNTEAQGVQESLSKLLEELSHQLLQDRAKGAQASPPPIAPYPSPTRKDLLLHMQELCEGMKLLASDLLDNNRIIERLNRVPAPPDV

For `COCCn1cc(-c2cnc(N)c(C(=O)Nc3ccncc3C)c2)cn1` [Compound A22, 2-Amino-5-[1-(2-methoxy-ethyl)-1H-pyrazol-4-yl]-N-(3-methyl-pyridin-4-yl)-nicotinamide], the IC50 in experiment [1] worked out at 690 nM; on IKKε, 2400 nM.
Consider `Cc1ccc(-c2cccc(-c3cnc(N)c(C(=O)Nc4ccncc4)c3)c2)cc1` [Compound A23, 2-Amino-5-(4′-methyl-biphenyl-3-yl)-N-pyridin-4-yl-nicotinamide], for which the results for the IC50 (in experiment [1]; on IKKε) were 7400 nM and 2200 nM, respectively.
For `COCCn1cc(-c2cnc(N)c(C(=O)Nc3ccnnc3)c2)cn1` [Compound A24, 2-Amino-5-[1-(2-methoxy-ethyl)-1H-pyrazol-4-yl]-N-pyridazin-4-yl-nicotinamide], the concentration for half-maximal inhibition (IC50) in experiment [1] is 1200 nM; at IKKε it was 890 nM.
The matching figures for `NC(=O)Cn1cc(-c2cnc(N)c(C(=O)Nc3ccncc3)c2)cn1` [Compound A25, 2-Amino-5-(1-carbamoylmethyl-1H-pyrazol-4-yl)-N-pyridin-4-yl-nicotinamide]: 360 nM and 530 nM.
`Cc1cc(NC(=O)c2cc(-c3ccc(CN4CCOCC4)s3)cnc2N)cc(C)n1` [Compound A26, 2-Amino-N-(2,6-dimethyl-pyridin-4-yl)-5-(5-morpholin-4-ylmethyl-thiophen-2-yl)-nicotinamide]: the values for the IC50 (in experiment [1]; at IKKε) were 8200 nM and 5200 nM, respectively.
In the case of `Nc1ncc(-c2ccc(CN3CCOCC3)s2)cc1C(=O)Nc1ccncn1` [Compound A27, 2-Amino-5-(5-morpholin-4-ylmethyl-thiophen-2-yl)-N-pyrimidin-4-yl-nicotinamide], the IC50 worked out at 810 nM in experiment [1] and 2600 nM on IKKε.
For the compound `COCCn1cc(-c2cnc(N)c(C(=O)Nc3ccnc4ccoc34)c2)cn1` [Compound A28, 2-Amino-N-furo[3,2-b]pyridin-7-yl-5-[1-(2-methoxy-ethyl)-1H-pyrazol-4-yl]-nicotinamide], the results for the concentration for half-maximal inhibition (IC50) (in experiment [1]; on IKKε) were 1200 nM and 2900 nM, respectively.
For the compound `Nc1ncc(-c2ccc(CN3CCOCC3)s2)cc1C(=O)Nc1ccnc2ccoc12` [Compound A29, 2-Amino-N-furo[3,2-b]pyridin-7-yl-5-(5-morpholin-4-ylmethyl-thiophen-2-yl)-nicotinamide], the half-inhibitory concentration (IC50) in experiment [1] stood at 890 nM; at IKKε, 2400 nM.
With `COC(=O)c1ccc(-c2cnc(N)c(C(=O)Nc3ccncc3)c2)cc1` [Compound A30, 4-[6-Amino-5-(pyridin-4-ylcarbamoyl)-pyridin-3-yl]-benzoic acid methyl ester], the IC50 is 1600 nM in experiment [1] and 1900 nM at IKKε.
The like results for `Nc1ncc(-c2ccc(C(=O)O)cc2)cc1C(=O)Nc1ccncc1` [Compound A31, 4-[6-Amino-5-(pyridin-4-ylcarbamoyl)-pyridin-3-yl]-benzoic acid] were, in that order, 400 nM and 990 nM.
As for `Nc1ncc(-c2ccc(CCC(=O)O)cc2)cc1C(=O)Nc1ccncc1` [Compound A32, 3-{4-[6-Amino-5-(pyridin-4-ylcarbamoyl)-pyridin-3-yl]-phenyl}-propionic acid], the IC50 in experiment [1] came out at 250 nM; at IKKε, 600 nM.
Regarding `Nc1ncc(-c2ccc(CN3CCOCC3)s2)cc1C(=O)Nc1ccncc1Cl` [Compound A33, 2-Amino-N-(3-chloro-pyridin-4-yl)-5-(5-morpholin-4-ylmethyl-thiophen-2-yl)-nicotinamide], the half-maximal inhibitory concentration (IC50) was found to be 250 nM in experiment [1] and 600 nM on IKKε.
Consider `Nc1ncc(-c2cn[nH]c2)cc1C(=O)Nc1ccncc1` [Compound A34, 2-Amino-5-(1H-pyrazol-4-yl)-N-pyridin-4-yl-nicotinamide], for which the values for the 50% inhibitory concentration (IC50) (in experiment [1]; on IKKε) were 280 nM and 740 nM, respectively.
As to `CC(=O)Nc1cc(NC(=O)c2cc(-c3ccc(CN4CCOCC4)s3)cnc2N)ccn1` [Compound A36, N-(2-Acetylamino-pyridin-4-yl)-2-amino-5-(5-morpholin-4-ylmethyl-thiophen-2-yl)-nicotinamide], the IC50 in experiment [1] is 190 nM; on IKKε, 540 nM.
With `COCCn1cc(-c2cnc(N)c(C(=O)Nc3ccncc3Cl)c2)cn1` [Compound A38, 2-Amino-N-(3-chloro-pyridin-4-yl)-5-[1-(2-methoxy-ethyl-)-1H-pyrazol-4-yl]nicotinamide], the IC50 in experiment [1] was found to be 740 nM; at IKKε, 1500 nM.
Consider `COc1ccc(NC(=O)c2cc(-c3ccc(CN4CCOCC4)s3)cnc2N)cc1` [Compound A39, 2-Amino-N-(4-methoxy-phenyl)-5-(5-morpholin-4-ylmethyl-thiophen-2-yl)-nicotinamide], for which the 50% inhibitory concentration (IC50) in experiment [1] was 910 nM; at IKKε, 390 nM.
Take `Nc1ncc(-c2cnn(CCO)c2)cc1C(=O)Nc1ccncc1` [Compound A42, 2-Amino-5-[1-(2-hydroxy-ethyl)-1H-pyrazol-4-yl]-N-pyridin-4-yl-nicotinamide]: the 50% inhibitory concentration (IC50) in experiment [1] stood at 670 nM; at IKKε it was 1700 nM.
The like results for `Nc1ncc(-c2csc(CN3CCOCC3)c2)cc1C(=O)Nc1ccncc1` [Compound A43, 2-Amino-5-(5-morpholin-4-ylmethyl-thiophen-3-yl)-N-pyridin-4-yl-nicotinamide] were, in that order, 140 nM and 330 nM.
For the compound `CC(=O)c1c[nH]c(-c2cnc(N)c(C(=O)Nc3ccncc3)c2)c1` [Compound A44, 5-(4-Acetyl-1H-pyrrol-2-yl)-2-amino-N-pyridin-4-yl-nicotinamide], the half-inhibitory concentration (IC50) in experiment [1] worked out at 240 nM; on IKKε it was 420 nM.
Regarding `Nc1ncc(-c2ccoc2)cc1C(=O)Nc1ccncc1` [Compound A45, 2-Amino-5-furan-3-yl-N-pyridin-4-yl-nicotinamide], the half-inhibitory concentration (IC50) in experiment [1] was found to be 610 nM; on IKKε, 140 nM.
Turning to `Nc1ncc(-c2cnn(Cc3ccccc3)c2)cc1C(=O)Nc1ccncc1` [Compound A46, 2-Amino-5-(1-benzyl-1H-pyrazol-4-yl)-N-pyridin-4-yl-nicotinamide], the results for the half-inhibitory concentration (IC50) (in experiment [1]; on IKKε) were 120 nM and 240 nM, respectively.
Regarding `Cn1ccc(-c2cnc(N)c(C(=O)Nc3ccncc3)c2)n1` [Compound A47, 2-Amino-5-(1-methyl-1H-pyrazol-3-yl)-N-pyridin-4-yl-nicotinamide], the IC50 came to 330 nM in experiment [1] and 380 nM at IKKε.
On to `Nc1ncc(-c2ccsc2)cc1C(=O)Nc1ccncc1` [Compound A49, 2-Amino-N-pyridin-4-yl-5-thiophen-3-yl-nicotinamide], for which the IC50 in experiment [1] was found to be 410 nM; at IKKε, 930 nM.
The matching figures for `Nc1ncc(-c2cnn(CCN3CCOCC3)c2)cc1C(=O)Nc1ccncc1` [Compound A51, 2-Amino-5-[1-(2-morpholin-4-yl-ethyl)-1H-pyrazol-4-yl]-N-pyridin-4-yl-nicotinamide]: 740 nM and 270 nM.
As for `CC(=O)c1ccc(-c2cnc(N)c(C(=O)Nc3ccncc3)c2)s1` [Compound A53, 5-(5-Acetyl-thiophen-2-yl)-2-amino-N-pyridin-4-yl-nicotinamide], the IC50 was found to be 160 nM in experiment [1] and 510 nM at IKKε.
For the compound `Nc1ncc(-c2ccc(CN3CCOCC3)s2)cc1C(=O)Nc1ccncc1` [Compound A54, 2-Amino-5-(5-morpholin-4-ylmethyl-thiophen-2-yl)-N-pyridin-4-yl-nicotinamide], the IC50 in experiment [1] is 88 nM; on IKKε it was 450 nM.
